According to US9339508B2, “Use of 3-methoxy-pregnenolone for the preparation of a drug for treating a traumatic brain injury” (MAPREG, priority 2003, dated 2016):

System: 80 different CNS neurotransmitters receptors
Assay: In vitro affinity screen on CNS receptors
Format: binding
Settings: 10 μM; significant: inhibition higher than 50%
Excerpt: MAP4343 has been screened for in vitro affinity to 80 different CNS neurotransmitters receptors using various validated binding assays.

CO[C@H]1CC[C@@]2(C)C(=CC[C@H]3[C@@H]4CC[C@H](C(C)=O)[C@@]4(C)CC[C@@H]32)C1 [3-methoxy-PREG, 3β-methoxy-pregna-5-ene-20-one]
affinity for tested CNS receptors: no significant affinity for any tested receptor
